Biological target: Tie-2 kinase enzyme (Homo sapiens, UniProt Q02763)
Assay: Tie-2 Homogenous Time Resolved Flourescent (HTRF) kinase assay
Type: biochemical
Settings: 0.01 mM ATP, about 90 minutes at RT; read-out: IC50 for the inhibition of Tie-2 as measured by the HTRF assay
Description: IC50's for the inhibition of the Tie-2 kinase enzyme for individual compounds were measured using an HTRF assay, utilizing the following procedure:
In a 96 well plate (available from Costar Co.) was placed 1 uL of each test and standard compound per well in 100% DMSO having a 25 uM final compound concentration (3-fold, 10 point dilution). To each well was added 20 uL of a reaction mix formed from […], 0.05% BSA (0.1 uL; from a 10% stock solution available from Sigma-Aldrich Co.), 0.002 mM of BLC HER-2 KKK (Biotinylated Long chain peptide; 0.04 uL; from a […] stock solution), 0.01 mM concentration of ATP (0.02 uL; commercially available from Sigma-Aldrich Co.) and the remaining solution was water (15.84 uL) to make to a total volume of 20 uL/well.
The reaction was initiated in each well by adding 20 uL per well of an enzyme preparation consisting of a 50 mM concentration of Hepes (1.0 uL; from a 1000 mM stock solution commercially available from Gibco Co.), 0.05% concentration of BSA (0.1 uL), 4 mM of DTT (0.08 uL; from a 1000 mM stock solution available from Sigma-Aldrich Co.), a 2.4×10^−7 concentration of Tie-2 (0.02 uL, from a 4 mM concentration stock), with the remaining volume being water (18.8 uL) to dilute the enzyme preparation to a total volume of 20 uL. The plate was incubated for about 90 minutes at RT. After incubation, a 160 uL of a filtered detection mixture, prepared from 0.001 mg/ml of SA-APC (0.0765 uL; available as a 2.09 mg/ml stock solution from Gibco), 0.03125 nM concentration of Eu-Ab (0.1597 uL; available in a 31.3 nM stock solution from Gibco), with the remaining volume being Detection buffer (159.73 uL), was added to each well to stop the reaction therein. The plate was then allowed to equilibrate for about 3 hr and read on a Ruby Star fluorescent reader (available from BMG Technologies, Inc.) using a 4 parameter fit using activity base to calculate the corresponding IC50's for the test and standard compounds in each well.

Sequence of Tie-2 kinase enzyme (Q02763 23-1124): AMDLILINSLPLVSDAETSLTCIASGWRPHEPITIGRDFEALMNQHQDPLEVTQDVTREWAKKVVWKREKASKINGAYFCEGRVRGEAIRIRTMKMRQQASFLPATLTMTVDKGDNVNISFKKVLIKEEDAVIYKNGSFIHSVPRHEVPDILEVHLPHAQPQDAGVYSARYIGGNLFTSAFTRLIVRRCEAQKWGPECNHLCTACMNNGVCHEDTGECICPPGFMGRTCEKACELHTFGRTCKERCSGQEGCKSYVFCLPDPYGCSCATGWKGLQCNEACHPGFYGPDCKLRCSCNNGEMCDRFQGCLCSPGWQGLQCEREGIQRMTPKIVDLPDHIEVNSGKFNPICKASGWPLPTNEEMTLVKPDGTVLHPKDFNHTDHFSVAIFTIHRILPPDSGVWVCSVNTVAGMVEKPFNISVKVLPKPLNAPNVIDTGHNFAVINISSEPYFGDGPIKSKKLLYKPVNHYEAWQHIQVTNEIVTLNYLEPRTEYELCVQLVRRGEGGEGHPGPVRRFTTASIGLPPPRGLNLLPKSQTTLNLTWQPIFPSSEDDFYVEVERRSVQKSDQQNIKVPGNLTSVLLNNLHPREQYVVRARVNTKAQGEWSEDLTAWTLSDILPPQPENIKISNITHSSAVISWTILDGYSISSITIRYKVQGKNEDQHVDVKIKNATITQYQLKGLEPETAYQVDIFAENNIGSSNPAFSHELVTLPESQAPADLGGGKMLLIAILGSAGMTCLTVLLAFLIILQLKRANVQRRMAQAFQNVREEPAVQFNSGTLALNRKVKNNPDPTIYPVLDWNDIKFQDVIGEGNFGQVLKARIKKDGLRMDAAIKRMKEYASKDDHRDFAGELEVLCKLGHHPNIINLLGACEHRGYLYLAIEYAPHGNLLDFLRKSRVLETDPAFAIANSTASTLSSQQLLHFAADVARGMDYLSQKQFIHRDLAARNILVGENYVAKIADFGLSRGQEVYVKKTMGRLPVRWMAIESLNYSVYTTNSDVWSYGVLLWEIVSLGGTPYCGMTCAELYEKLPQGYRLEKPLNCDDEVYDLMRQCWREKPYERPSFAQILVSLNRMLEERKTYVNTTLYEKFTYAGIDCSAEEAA

IC50	SMILES
≤ 100 nM	Cc1ccc(C(=O)Nc2cccc(C(C)C)c2)cc1Oc1ncccc1-c1cn[nH]c1 [Example 1, 3-(3-(1H-pyrazol-4-yl)pyridin-2-yloxy)-N-(3-isopropylphenyl)-4-methylbenzamide]
≤ 500 nM	CN(C)CCCN(C)c1ccc(C(F)(F)F)cc1NC(=O)c1cc(Oc2ncccc2-c2cnco2)ccc1F [Example 2, N-(2-((3-(dimethylamino)propyl)(methyl)amino)-5-(trifluoromethyl)phenyl)-2-fluoro-5-(3-(oxazol-5-yl)pyridin-2-yloxy)benzamide]
≤ 1000 nM	Cc1ccc(C(=O)Nc2cccc(C(C)C)c2)cc1Nc1ncccc1-c1nnn[nH]1 [Example 3, 3-(3-(1H-tetrazol-5-yl)pyridin-2-ylamino)-N-(3-isopropylphenyl)-4-methylbenzamide]
≤ 500 nM	Cc1ccc(C(=O)Nc2cccc(C(C)C)c2)cc1Oc1ncccc1-c1cnn(Cc2ccccc2)c1 [Example 10, 3-(3-(1-benzyl-1H-pyrazol-4-yl)pyridin-2-yloxy)-N-(3-isopropylphenyl)-4-methylbenzamide]
≤ 100 nM	COc1ccc(C2CCCCC2)cc1NC(=O)c1ccc(C)c(Oc2ncccc2-c2cn[nH]c2)c1 [Example 11, 3-(3-(1H-pyrazol-4-yl)pyridin-2-yloxy)-N-(5-cyclohexyl-2-methoxyphenyl)-4-methylbenzamide]
≤ 500 nM	Cc1ccc(C(=O)Nc2cccc(C(C)C)c2)cc1Nc1ncccc1-c1nnn[nH]1 [Example 12, 3-(3-(1H-tetrazol-5-yl)pyridin-2-ylamino)-N-(3-isopropylphenyl)-4-methylbenzamide]
≤ 100 nM	Cc1ccc(C(=O)Nc2cccc(C(C)C)c2)cc1Oc1ncccc1-c1cnco1 [Example 14, N-(3-isopropylphenyl)-4-methyl-3-(3-(oxazol-5-yl)pyridin-2-yloxy)benzamide]
≤ 500 nM	Cc1ccc(C(=O)Nc2cccc(C(F)(F)F)c2)cc1Oc1ncccc1-c1ccn[nH]1 [Example 15, 3-(3-(1H-pyrazol-5-yl)pyridin-2-yloxy)-4-methyl-N-(3-(trifluoromethyl)phenyl)benzamide]
≤ 1000 nM	O=C(Nc1cccc(OC(F)(F)F)c1)c1cc(Oc2ncccc2-c2cnco2)ccc1F [Example 16, 2-fluoro-5-(3-(oxazol-5-yl)pyridin-2-yloxy)-N-(3-(trifluoromethoxy)phenyl)benzamide]
≤ 100 nM	Cc1ccc(C(=O)Nc2cccc(C(C)C)c2)cc1Oc1ccccc1-c1cnco1 [Example 18, N-(3-isopropylphenyl)-4-methyl-3-(2-(oxazol-5-yl)phenoxy)benzamide]
≤ 500 nM	Cc1ccc(C(=O)Nc2cc(C(F)(F)F)ccc2N(C)CCCN(C)C)cc1Oc1ccccc1-c1cnco1 [Example 19, N-(2-((3-(dimethylamino)propyl)(methyl)amino)-5-(trifluoromethyl)phenyl)-4-methyl-3-(2-(oxazol-5-yl)phenoxy)benzamide]
≤ 500 nM	Cc1ccc(C(=O)Nc2cc(C(F)(F)F)ccc2N(C)CCCN(C)C)cc1Oc1ncccc1-c1cnco1 [Example 20, N-(2-((3-(dimethylamino)propyl)(methyl)amino)-5-(trifluoromethyl)phenyl)-4-methyl-3-(3-(oxazol-5-yl)pyridin-2-yloxy)benzamide]
≤ 100 nM	Cc1ccc(C(=O)Nc2cccc(C(F)(F)F)c2)cc1Oc1ncccc1-c1cnco1 [Example 22, 4-methyl-3-(3-(oxazol-5-yl)pyridin-2-yloxy)-N-(3-(trifluoromethyl)phenyl)benzamide]
≤ 1000 nM	O=C(Nc1ccc(Oc2ncccc2-c2cn[nH]c2)cc1)c1ccccc1Nc1ccccc1 [Example 23, N-(4-(3-(1H-pyrazol-4-yl)pyridin-2-yloxy)phenyl)-2-(phenylamino)benzamide]

From patent US8822514B2, “Multi-cyclic compounds and methods of use” (Amgen Inc., priority 2006, dated 2014)
